Measurements as given in patent US6867305B2, “Synthesis of epothilones, intermediates thereto and analogues thereof” (Sloan-Kettering Institute for Cancer Research, priority 1996, dated 2005).
Like-named read-outs stand apart in the source and are kept apart here.

What was measured:
[1] = system: HCT-116 colon carcinoma xenograft; experiment: Human tumor xenograft in nude mice; assay type: in vivo; settings: HCT-116, i.v. infusion
From the text: Therapeutic efficacy of cancer chemotherapeutic agents varies with various factors including the tumor models used and the dosage of drug and schedules and routes of administration. […] In the present studies, we intended to compare the therapeutic effects of drugs near their maximal tolerated doses by measuring the extent of body-weight decreases and/or lethality.
(§1) Depending on the tumor type, treatment started on day 10 to day 21 when subcutaneous tumor size reached 35-200 mm^3, except otherwise indicated. Tumor size and body-weight were recorded every other day (Q2D) and, for humane reasons, the animals were sacrificed when tumor size reached ≧10% of body-weight. Each group, including untreated control, consisted of 3-5 animals unless otherwise indicated.
Athymic nude mice bearing the nu/nu gene were used for all human tumor xenografts. Outbred, Swiss-background mice were obtained from Charles River Laboratories. Male mice 8 weeks or older weighing 22 g and up were used for most experiments. The drug was administered via the tail vein for 6 hr.-i.v. infusion. Each individual mouse was confined in a perforated Falcon polypropylene tube restrainer for drug administration. Tumor volume was assessed by measuring length×width×height (or width) using a caliper. The programmable Harvard PHD2000 syringe pump (Harvard Apparatus) with multi-track was used for i.v. infusion. […] All animal studies were conducted in accordance with the guidelines of the National Institutes of Health “Guide for the Care and Use of Animals” and the protocol approved by the Memorial Sloan-Kettering Cancer Center's Institutional Animal Care and Use Committee. In keeping with the policy of this committee for the humane treatment of tumor-bearing animals, mice were euthanized when tumors reached ≧10% of their total body weight.
(§2) Human tumor cells (5×10^6) or tumor tissue (30-50 mg) were implanted s.c. flank in nu/nu mice (Charles River Laboratories, Wilmington, Mass.). When tumor grew to a specified size, treatment was started by every-other day×5 with 6 hr i.v.-infusion, unless otherwise indicated. Tumor volume was measured with calipers in three dimensions (length×width×height or width). Body-weight changes and lethality were monitored every other day.

[2] = system: CCRF-CEM human T-cell acute lymphoblastic leukemia cells; experiment: Tumor cell growth inhibition in vitro (XTT, 72 h); assay type: cell-based; settings: for IC50: 72 h incubation
Method: (§3) The fresh medium containing each drug was replenished every 7-14 days. […] In each case ,the drug-exposed cells were resuspended in fresh media for a minimum of 4 days before the experiments for the cell-growth inhibition was carried out.
(§4) The cells were cultured at an initial density of 2-5×10^4 cells per ml. They were maintained in a 5% CO2-humidified atmosphere at 37° C. in RPMI mediun 1640 (GIBCO/BRL) containing penicillin (100 units/ml), streptomycin (100 μg/ml) (GIBCO/BRL), and 5% heat-inactivated fetal bovine serum. For solid tumor cells growing in a monolayer (such as MCF-7/Adr), cytotoxicitiy of the drug was determined in 96-well microtiter plates by using the sulforhodamine B method as described by Skehan et al (23) for measuring the cellular protein content. For cells that were grown in suspension (such as CCRF-CEM and its sublines), cytotoxicitiy was measured by using the 2,-3-bis(2-methoxy-4-nitro-5-sulfophenyl)-5carboxanilide)-2H terazodium hydroxide (XTT)-microculture tetrazonium method (24) in duplicate in 96-well microtiter plates. For both methods, the absorbance of each well was measured with a microplate reader (EL-340, Bio-Tek, Burlington, Vt.). Each run entailed six or seven concentrations of the tested drugs. Dose-effect relationship data were analyzed with the median-effect plot (25) by using a previously described computer program (26).

CCRF-CEM/VBL = experiment: Relative potency in vitro, very highly resistant MDR cells; assay type: cell-based, human
Method: as §4

[3] = system: K562 human chronic myeloblastic leukemia; experiment: Tumor cell growth inhibition in vitro; assay type: cell-based; settings: Homo sapiens, K562, K562
Method: as §4, with “They were maintained in a 5% CO2-humidified atmosphere at 37° C. in RPMI mediun 1640 (GIBCO/BRL) containing penicillin (100 units/ml), streptomycin (100 μg/ml) (GIBCO/BRL), and 5% heat-inactivated fetal bovine serum.” left out

[4] = system: CCRF-CEM/Taxol (paclitaxel-resistant subline); experiment: Tumor cell growth inhibition in vitro (XTT, 72 h); assay type: cell-based, human
Method: as §3, §4

[5] = system: CCRF-CEM/VBL100 (vinblastine-resistant subline); experiment: Tumor cell growth inhibition in vitro (XTT, 72 h); assay type: cell-based, human
Method: as §3, §4

[6] = system: MCF-7/Adr mammary xenograft; experiment: Human tumor xenograft in nude mice; assay type: in vivo; settings: i.p., ref 19 (Table 5)
[7] = system: MX-1 mammary carcinoma xenograft; settings: MX-1, i.p., ref 19 (Table 4)
[8] = system: UL-3-C ovarian adenocarcinoma; experiment: Tumor cell growth inhibition in vitro; assay type: cell-based, human; settings: read-out: IC50
Method: as §3, §4

[9] = system: MX-1 human mammary carcinoma; experiment: Tumor cell growth inhibition in vitro; assay type: cell-based
Method: as §4, with “They were maintained in a 5% CO2-humidified atmosphere at 37° C. in RPMI mediun 1640 (GIBCO/BRL) containing penicillin (100 units/ml), streptomycin (100 μg/ml) (GIBCO/BRL), and 5% heat-inactivated fetal bovine serum.” left out

[10] = Body-weight decrease and lethality in tumor-bearing nude mice; settings: nude mice
Method: as §1
Essential features of useful cancer therapeutic agent involve not only high efficiency against cancer but also low toxicity toward the host, especially toward vital organs or functions [i.e. wide therapeutic window or high therapeutic index (LD50/ED50)].
as §2

B16 Melanoma = assay type: in vivo, murine; settings: B16 Melanoma, i/p, maximal tolerated doses

Compound: CCc1c2c(nc3ccc(OC(=O)N4CCC(N5CCCCC5)CC4)cc13)-c1cc3c(c(=O)n1C2)COC(=O)[C@]3(O)CC [CPT-11, Irinotecan, reference compound]
- Therapeutic Effect Rank Order [1]: Taxol, CPT-11≈dEpoB, dEpoF

Compound: C/C1=C/C[C@@H](/C(C)=C/c2csc(C=O)n2)OC(=O)C[C@H](O)C(C)(C)C(=O)[C@H](C)[C@@H](O)[C@@H](C)CCC1 [21-oxo-dEpoB, 21-oxo-desoxyepothilone B]
- potency relative to dEpoB (times less potent) ([2]; CCRF-CEM): about 3.7 ×
- IC50 ([2]; CCRF-CEM, read-out: IC50): 0.027 µM
- potency relative to dEpoB (times less potent) (CCRF-CEM/VBL; MDR CCRF-CEM/VBL cells): 5.1 ×
- Fold of Resistance (B)/(A) (CCRF-CEM/VBL; [IC50 CCRF-CEM/VBL]/[IC50 CCRF-CEM]): 11.9 x
- IC50 (CCRF-CEM/VBL; very highly resistant MDR CCRF-CEM/VBL cells, read-out: CCRF-CEM/VBL IC50): 0.326 µM

Compound: C/C1=C/CC(/C(C)=C/c2csc(C)n2)NC(=O)CC(O)C(C)(C)C(=O)[C@H](C)[C@@H](O)[C@@H](C)CCC1 (stereo partly drawn) [aza-dEpoB, 12,13,15-desoxy-15(S)-aza-epothilone B]
- IC50 ([2]; Homo sapiens, CCRF-CEM, 72 h): 0.0278 µM
- potency relative to aza-EpoB (fold less potent) ([2]; in vitro cell lines): about 10 fold
- IC50 [3]: 0.0024 µM
- cross-resistance (fold of resistance vs parent cell line) ([4]; CCRF-CEM/Taxol vs CCRF-CEM): 38.4 x
- IC50 ([4]; Homo sapiens, CCRF-CEM, 72 h): 0.791 µM
- cross-resistance (fold of resistance vs parent cell line) ([5]; CCRF-CEM/VBL100 vs CCRF-CEM): 35.8 x
- IC50 ([5]; Homo sapiens, CCRF-CEM, 72 h): 0.997 µM

Compound: CC[C@@]1(O)C(=O)OCc2c1cc1n(c2=O)Cc2cc3ccccc3nc2-1 [Camptothecin, camptothecin, reference compound]
- Therapeutic Effect Rank Order [6]: dEpoB>Camptothecin>Adriamycin>Taxol
- Therapeutic Effect Rank Order [7]: dEpoB>Camptothecin>Taxol>VBL, EpoB

Compound: C/C(=C\c1csc(C)n1)[C@@H]1C[C@@H]2O[C@]2(C)CCC[C@H](C)[C@H](O)[C@@H](C)C(=O)C(C)(C)[C@@H](O)CC(=O)O1 [EpoB, epothilone B, reference compound]
- IC50 [8]: 0.00058 µM
- IC50 [9]: 0.00184 µM
- drop in body-weight that led to lethality [10]: 14-20%
- Therapeutic Effect Rank Order (B16 Melanoma): dEpoB>Taxol>>EpoB
- Therapeutic Effect Rank Order [7]: dEpoB>Camptothecin>Taxol>VBL, EpoB
- IC50 (UL-3-B/Taxol; UL-3-B/Taxol): 0.00124 µM
- cross-resistance (fold of resistance vs parent cell line) (UL-3-B/Taxol; UL-3-B/Taxol vs UL-3-C): 2.1 x
